≈ marks a conversion by molar mass, not a printed value.
What was measured:
[1] = system: murine tumor cell lines KB, L1210 and P388; assay: In vitro activity against one or all of the murine tumor cell lines KB, L1210 and P388; assay type: cell-based; settings: for in vitro antitumor activity: one or all of KB, L1210 and P388
Description: (§1) A suitable solvent system was developed for the isolation of pure compounds of the invention by using the following systems in TLC. (A) chloroform (100%), (B) chloroform-ethyl acetate (80:20), (C) chloroform-acetone (80:20), (D) chloroform-methanol (80:20), (E) chloroform-acetic acid (95:5), (F) chloroform-acetone-acetic acid (90:8:2), (G) chloroform-hexane-acetic acid (50:50:5), (H) ether-petroleum ether (1:1), (I) chloroform-benzene methanol (6:3:1), (J) chloroform-benzene-methanol (7:3:2), (K) benzene-ethylacetate-methanol-formic acid-water (5:5:1.5:1:0.3), (L) chloroform-hexane-methanol (5:5:1) and (M) chloroform-heptane-methanol-acetic acid (40:40:18:2). In some of the solvents the order of elution changed. […] The crude compound was therefore chromatographed on a TLC grade silica gel column eluting with chloroform (100%), chlorform-acetic acid (99:1), chloroform-acetic acid (98:2), and chloroform-acetic acid (95:5). Based on the TLC, various fractions were combined to produce a red and purple eluate. These were separately concentrated and precipitated with chloroform-petroleum ether to yield red and purple powder. The red powder has been designated as maggiemycin (NSC-D344012) and the purple powder as anhydromaggiemycin. Both these compounds were active against Bacillus subtilis and Straphylococcus aureus. The in vitro antitumor activity of maggiemycin and anhydromaggiemycin against KB, P388 and L1210 murine cell lines is shown in Table 1.
The biological activity of these newly isolated anthracyclinones was compared with some of the known anthracyclinones. Each compounds was tested for in vitro activity against one or all of the murine tumor cell lines KB, L1210 and P388.

KB = assay: In vitro cytotoxicity (growth inhibition) against KB; assay type: cell-based, murine; settings: Homo sapiens, dose level at which 50% inhibition of growth in vitro is noted vs. untreated controls, read-out: ED50 KB
Description: as §1, with “The in vitro antitumor activity of maggiemycin and anhydromaggiemycin against KB, P388 and L1210 murine cell lines is shown in Table 1.” left out

L1210 = assay: In vitro cytotoxicity (growth inhibition) against L1210; assay type: cell-based, murine; settings: Mus musculus, dose level at which 50% inhibition of growth in vitro is noted vs. untreated controls, read-out: ED50 L1210
Description: as §1, with “The in vitro antitumor activity of maggiemycin and anhydromaggiemycin against KB, P388 and L1210 murine cell lines is shown in Table 1.” left out

P388 = assay: In vitro cytotoxicity (growth inhibition) against P388; assay type: cell-based, murine; settings: Mus musculus, dose level at which 50% inhibition of growth in vitro is noted vs. untreated controls, read-out: ED50 P388
Description: as §1, with “The in vitro antitumor activity of maggiemycin and anhydromaggiemycin against KB, P388 and L1210 murine cell lines is shown in Table 1.” left out

Bacillus subtilis = assay: Antibacterial activity against Bacillus subtilis; assay type: cell-based
Straphylococcus aureus = assay: Antibacterial activity against Straphylococcus aureus; assay type: cell-based

Row | Compound | in vitro antitumor activity [1] | IC50 (KB) | IC50 (L1210) | IC50 (P388) | in vitro antitumor activity, comparison of anhydromaggiemycin with maggiemycin ([1]; relative to maggiemycin) | activity against Bacillus subtilis (Bacillus subtilis) | activity against Straphylococcus aureus (Straphylococcus aureus)
1 | COc1cccc2c1C(=O)c1c(O)c3c(c(O)c1C2=O)C[C@@](O)(C(C)=O)CC3=O [7-oxidodaunorubicinone] | active |  |  |  |  |  | 
2 | CCc1cc(O)c2c(O)c3c(c(O)c2c1C(=O)OC)C(=O)c1cccc(O)c1C3=O [Anhydromaggiemycin] | active | 0.51 µg/mL (≈ 1.25 µM) | 0.26 µg/mL (≈ 0.637 µM) | 0.62 µg/mL (≈ 1.52 µM) | more active than maggiemycin | active | active
3 | CC[C@@]1(O)CC(=O)c2c(O)c3c(c(O)c2[C@H]1C(=O)OC)C(=O)c1cccc(O)c1C3=O [Maggiemycin] | active | 2.7 µg/mL (≈ 6.33 µM) | 5.2 µg/mL (≈ 12.2 µM) | 4.4 µg/mL (≈ 10.3 µM) |  | active | active
4 | COc1cccc2c1C(=O)c1c(c(O)c3cc(C(C)=O)cc(O)c3c1O)C2=O [anhydro-7-oxidodaunorubicinone, Anhydro-7-oxidodaunorubicinone] | inactive |  |  |  |  |  | 
5 | COc1cccc2c1C(=O)c1c(O)c3c(c(O)c1C2=O)C[C@@](O)(C(C)=O)C[C@@H]3O [daunorubicinone, Daunorubicinone, reference compound] | inactive |  |  |  |  |  | 
6 | CC[C@@]1(O)C[C@H](O)c2c(O)c3c(c(O)c2[C@H]1C(=O)OC)C(=O)c1cccc(O)c1C3=O [ε-rhodomycinone, ε-Rhodomycinone, reference compound] | inactive |  |  |  |  |  | 
